Measurements published in patent US20040142317A1, “Use of amino acid transporter atbo,+ as a delivery system for drugs and prodrugs” (priority 2003, published 2004).

Assays:
SN2 = target: T1, SN2 (Homo sapiens, UniProt Q8WUX1); experiment: D-[3H]-serine transport in HRPE cells transfected with transporter cDNA; format: cell-based; settings: D-[3H]-serine 5 μM
T1 construct: expressed in transfected cells; host or cells: HRPE cells
Method: (§1) Transport of D-[^3H]-serine (5 μM) was measured in HRPE cells transfected with cDNA of each transporter.
(§2) The present inventors evaluated the function of 10 different amino acid transporter clones with respect to transport of D-serine in heterologous expression systems (FIG. 11). All of these transporters are expressed in the intestinal tract. The list of the transporters tested include three energy-independent, heterodimeric facilitative transporters (L1, L2, and b^0,+), three subtypes of the Na^+-coupled system A (ATA1, ATA2, and ATA3), two subtypes of the Na^+- and H^+-coupled system N (SN1 and SN2), the Na^+-coupled system ATB^0, and the Na^+- and Cl^−-coupled system ATB^0,+. […] The ability to transport D-serine was the highest for the Na^+- and Cl^−-coupled transporter ATB^0,+. ATB^0,+ belongs to the gene family of neurotransmitter transporters whose transport function is energized by multiple driving forces, namely a Na^+ gradient, a Cl^− gradient, and membrane potential. […] Based on the energetics of these two transport systems, ATB^0,+ is expected to play the leading role in this process.

ATA2 = target: T2, ATA2 (Homo sapiens, UniProt Q96QD8); experiment: as above; format: cell-based; settings: D-[3H]-serine 5 μM
T2 construct: expressed in transfected cells; host or cells: HRPE cells
T2 sequence (Q96QD8 1-506): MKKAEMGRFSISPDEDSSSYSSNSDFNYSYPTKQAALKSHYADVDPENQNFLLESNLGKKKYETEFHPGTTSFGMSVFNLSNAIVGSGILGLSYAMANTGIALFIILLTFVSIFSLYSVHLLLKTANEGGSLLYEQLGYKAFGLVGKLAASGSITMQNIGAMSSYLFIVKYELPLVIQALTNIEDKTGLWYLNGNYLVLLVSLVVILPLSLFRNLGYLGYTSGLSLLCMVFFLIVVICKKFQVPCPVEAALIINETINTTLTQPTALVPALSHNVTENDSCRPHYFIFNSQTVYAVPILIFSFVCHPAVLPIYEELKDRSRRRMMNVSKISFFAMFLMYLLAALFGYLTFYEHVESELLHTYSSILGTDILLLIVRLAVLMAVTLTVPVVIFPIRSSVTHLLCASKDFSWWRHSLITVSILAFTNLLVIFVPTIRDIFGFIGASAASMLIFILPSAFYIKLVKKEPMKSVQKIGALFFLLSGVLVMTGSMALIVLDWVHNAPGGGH
Method: as §1, §2

b^0,+ (b^0,+AT/4F2hc) = target: T3, b^0,+ (b^0,+AT/4F2hc) (Mus musculus, UniProt Q9QXA6); experiment: as above; format: cell-based; settings: D-[3H]-serine 5 μM
T3 construct: expressed in transfected cells; host or cells: HRPE cells
T3 sequence (Q9QXA6 1-487): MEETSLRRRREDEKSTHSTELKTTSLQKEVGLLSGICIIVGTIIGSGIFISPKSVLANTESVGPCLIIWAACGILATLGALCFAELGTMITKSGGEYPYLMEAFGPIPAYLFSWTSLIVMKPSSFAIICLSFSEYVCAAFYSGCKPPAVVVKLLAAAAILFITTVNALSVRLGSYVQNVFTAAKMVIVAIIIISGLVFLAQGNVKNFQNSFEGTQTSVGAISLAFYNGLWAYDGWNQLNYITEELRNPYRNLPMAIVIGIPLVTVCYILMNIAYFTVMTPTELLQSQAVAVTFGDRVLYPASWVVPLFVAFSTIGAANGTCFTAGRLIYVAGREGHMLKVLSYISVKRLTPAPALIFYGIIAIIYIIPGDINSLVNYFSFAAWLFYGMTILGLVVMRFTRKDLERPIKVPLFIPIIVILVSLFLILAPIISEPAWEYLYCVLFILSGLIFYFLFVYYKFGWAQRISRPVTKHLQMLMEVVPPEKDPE
Method: as §1, §2

ATA1 = target: T4, ATA1 (Homo sapiens, UniProt Q9H2H9); experiment: as above; format: cell-based; settings: D-[3H]-serine 5 μM
T4 construct: expressed in transfected cells; host or cells: HRPE cells
T4 sequence (Q9H2H9 1-487): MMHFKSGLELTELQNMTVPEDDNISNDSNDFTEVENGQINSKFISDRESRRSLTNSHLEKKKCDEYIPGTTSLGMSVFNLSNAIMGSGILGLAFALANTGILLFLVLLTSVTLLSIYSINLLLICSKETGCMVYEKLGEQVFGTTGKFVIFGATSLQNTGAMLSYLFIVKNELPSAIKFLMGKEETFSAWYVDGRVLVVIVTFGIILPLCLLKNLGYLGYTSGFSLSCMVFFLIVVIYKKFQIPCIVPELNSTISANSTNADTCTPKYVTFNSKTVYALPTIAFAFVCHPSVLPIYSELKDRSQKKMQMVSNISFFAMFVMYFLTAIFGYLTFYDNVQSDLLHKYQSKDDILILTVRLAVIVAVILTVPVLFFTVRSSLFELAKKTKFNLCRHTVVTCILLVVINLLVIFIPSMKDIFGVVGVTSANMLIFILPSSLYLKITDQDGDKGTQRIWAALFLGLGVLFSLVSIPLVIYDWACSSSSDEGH
Method: as §1, §2

ATB^0,+ = target: T5, ATB^0,+ (Mus musculus, UniProt Q9JMA9); experiment: as above; format: cell-based; settings: D-[3H]-serine 5 μM
T5 construct: expressed in transfected cells; host or cells: HRPE cells
T5 sequence (Q9JMA9 1-638): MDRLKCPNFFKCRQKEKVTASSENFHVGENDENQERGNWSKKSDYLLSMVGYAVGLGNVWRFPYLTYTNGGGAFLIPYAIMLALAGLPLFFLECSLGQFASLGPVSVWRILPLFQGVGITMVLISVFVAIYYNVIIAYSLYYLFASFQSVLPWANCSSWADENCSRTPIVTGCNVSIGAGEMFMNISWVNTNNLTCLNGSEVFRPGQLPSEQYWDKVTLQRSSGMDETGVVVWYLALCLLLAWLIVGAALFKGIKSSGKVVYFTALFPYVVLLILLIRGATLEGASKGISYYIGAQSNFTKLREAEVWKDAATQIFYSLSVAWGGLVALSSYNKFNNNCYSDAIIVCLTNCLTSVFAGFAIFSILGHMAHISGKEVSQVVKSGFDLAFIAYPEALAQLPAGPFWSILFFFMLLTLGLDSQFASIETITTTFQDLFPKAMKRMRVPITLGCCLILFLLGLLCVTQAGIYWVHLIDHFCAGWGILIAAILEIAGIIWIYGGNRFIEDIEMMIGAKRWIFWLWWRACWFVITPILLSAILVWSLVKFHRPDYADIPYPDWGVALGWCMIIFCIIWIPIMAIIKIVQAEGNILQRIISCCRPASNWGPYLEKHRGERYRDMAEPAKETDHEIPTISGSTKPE
Method: as §1, §2

system L1 (LAT1/4F2hc) = target: T6, system L1 (LAT1/4F2hc) (Homo sapiens, UniProt Q01650); experiment: as above; format: cell-based; settings: D-[3H]-serine 5 μM
T6 construct: expressed in transfected cells; host or cells: HRPE cells
Method: as §1, §2

mouse ATB^0,+ = target: T7, mouse ATB^0,+ (Mus musculus, UniProt Q9JMA9); settings: D-amino acid 1 mM; NaCl pH 7.5
T7 sequence (Q9JMA9 1-638): T5 sequence (Q9JMA9 1-638)

T1 sequence (Q8WUX1 whole entry, species assumed): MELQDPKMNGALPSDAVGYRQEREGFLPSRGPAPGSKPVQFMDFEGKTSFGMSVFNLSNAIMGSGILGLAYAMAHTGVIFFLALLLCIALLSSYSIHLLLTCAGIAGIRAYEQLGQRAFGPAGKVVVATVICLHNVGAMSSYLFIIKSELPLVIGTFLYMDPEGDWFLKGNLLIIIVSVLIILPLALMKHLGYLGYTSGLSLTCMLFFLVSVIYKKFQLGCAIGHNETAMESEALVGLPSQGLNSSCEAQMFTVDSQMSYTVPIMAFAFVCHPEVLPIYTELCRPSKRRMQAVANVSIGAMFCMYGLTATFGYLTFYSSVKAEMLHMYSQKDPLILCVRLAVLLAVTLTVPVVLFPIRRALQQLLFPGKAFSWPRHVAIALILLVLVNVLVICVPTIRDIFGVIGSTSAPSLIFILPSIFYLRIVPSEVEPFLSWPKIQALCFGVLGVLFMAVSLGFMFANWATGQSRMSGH
T6 sequence (Q01650 whole entry, species assumed): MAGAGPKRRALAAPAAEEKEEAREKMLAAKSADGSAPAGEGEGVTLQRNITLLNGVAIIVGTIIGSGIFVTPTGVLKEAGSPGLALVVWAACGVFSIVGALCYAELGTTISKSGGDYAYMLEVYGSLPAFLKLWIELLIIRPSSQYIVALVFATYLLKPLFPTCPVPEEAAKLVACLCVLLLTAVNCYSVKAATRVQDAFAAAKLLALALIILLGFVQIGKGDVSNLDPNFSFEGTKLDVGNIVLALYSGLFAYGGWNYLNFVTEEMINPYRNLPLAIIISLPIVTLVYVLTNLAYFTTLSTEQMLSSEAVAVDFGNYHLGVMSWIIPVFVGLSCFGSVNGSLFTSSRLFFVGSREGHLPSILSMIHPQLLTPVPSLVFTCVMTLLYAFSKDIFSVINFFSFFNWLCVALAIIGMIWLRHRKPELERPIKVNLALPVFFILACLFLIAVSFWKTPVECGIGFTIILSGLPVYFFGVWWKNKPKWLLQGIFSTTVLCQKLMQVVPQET
T6 sequence (P08195 102-630 partner, species assumed): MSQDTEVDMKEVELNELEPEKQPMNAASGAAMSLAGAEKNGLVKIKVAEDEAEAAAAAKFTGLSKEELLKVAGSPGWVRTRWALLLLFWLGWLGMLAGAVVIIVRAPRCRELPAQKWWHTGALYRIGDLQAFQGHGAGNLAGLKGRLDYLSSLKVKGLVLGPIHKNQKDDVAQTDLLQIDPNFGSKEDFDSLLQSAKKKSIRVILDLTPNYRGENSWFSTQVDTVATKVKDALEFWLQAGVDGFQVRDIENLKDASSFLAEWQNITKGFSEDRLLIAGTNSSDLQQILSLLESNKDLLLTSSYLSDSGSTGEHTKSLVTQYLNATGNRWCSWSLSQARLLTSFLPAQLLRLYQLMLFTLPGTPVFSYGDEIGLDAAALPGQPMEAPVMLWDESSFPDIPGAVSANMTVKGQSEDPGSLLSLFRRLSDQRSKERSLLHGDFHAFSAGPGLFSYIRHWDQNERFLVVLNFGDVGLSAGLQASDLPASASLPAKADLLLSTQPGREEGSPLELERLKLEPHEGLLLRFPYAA

N[C@H](CO)C(=O)O [D-Serine, D-serine]
D-serine transport (SN2): did not transport D-serine
D-serine transport (ATA2): showed D-serine transport activity
D-serine transport (b^0,+ (b^0,+AT/4F2hc)): significant ability to transport
D-serine transport (ATA1): showed D-serine transport activity
D-serine transport (ATB^0,+): highest
D-serine transport (system L1 (LAT1/4F2hc)): significant ability to transport
Current in X. laevis oocytes (nA), D-isomer (mouse ATB^0,+): 267 ± 23 nA
